# Where two headings read alike, the source gives them in different places. Marks after values point to notes of the source that are not given here.
# Columns and labels:
# RPMI melanoma cells = test: DAPI staining assay; assay type: cell-based, human; details: 24 h
# Experimental: (§1) For this purpose, the melanoma cell lines selected were A375, RPMI, and SK-MEL-28, given that these three lines have very good correlation coefficient scores with tumor cells originating from a wide range of malignant tumors, based on transcriptional similarity. This feature can also lead to increased clinical applicability potential for the tested substances. The two compounds were tested against three human melanoma cell lines: A375, RPMI, and SK-MEL-28 melanoma cell lines by applying 0.1, 1, and 5 μM solutions, respectively. 4′,6-Diamidino-2-phenylindole (DAPI) is a DNA-specific marker which allows the direct fluorescent blue staining of nuclei against a dark background, widely used in life sciences research. In effect, the DAPI stain binds to chromatin within the nuclei and provides their clear outline under the blue light (405 nm) while the cytoplasmic medium remains non-fluorescent. Moreover, due to its lack of interference with DNA–linker interactions, DAPI stain can provide fine details of nuclei’ shapes instead of merely highlighting their centers which contain the highest concentration of nucleic acids.
# (§2) The DAPI assay was performed on three human melanoma cell lines: A375, RPMI, and SK-MEL-28. The cells were cultured in 24-well plates at 2x10^5 cells/well; compounds 6 and 7 in three different concentrations (0.1, 1, and 5 μM); and three DMSO concentrations (0.1, 1, and 5 μM) were used to stimulate cells. The immunofluorescent staining technique was performed according to a previously described protocol and adapted to our laboratory conditions. Thus, after 24 h of stimulation, the cells were fixed with 4% paraformaldehyde and incubated at room temperature for 1 h. Cell permeability was 30 min later performed with 2% Triton X solution in phosphate-buffered saline (PBS). The 300 nM 4’,6-diamidino-2-phenylindole (DAPI) staining was used to visualize cell nuclei under the fluorescence microscope at 40x magnification using CellSens V1.15 software (Olympus, Tokyo, Japan) and Image J software.
# A375 melanoma cells = test: DAPI staining assay; assay type: cell-based, human; details: 24 h
# Experimental: as §1, §2
# SK-MEL-28 melanoma cells = test: DAPI staining assay; assay type: cell-based, human; details: 24 h
# Experimental: as §1, §2
# Bcl-2 gene = test: rtPCR gene expression in A375 cells; assay type: cell-based, human
# Text: (§3) We applied rtPCR techniques in order to investigate the effect of our two compounds on the anti-apoptotic Bcl-XL and Bcl-2 genes as well as the proapoptotic Bak and Bad genes (Table 4). […] Therefore, we may presume that the apoptotic mechanism of both compounds against the A375 cells is not mediated by the tested genes or that alterations in their ratio are the underlying mechanism.
# Bcl-XL gene [1] = test: rtPCR gene expression in A375 cells; assay type: cell-based, human
# Text: as §3
# Bad gene [2] = test: rtPCR gene expression in A375 cells; assay type: cell-based, human
# Text: as §3
# Bak gene [3] = test: rtPCR gene expression in A375 cells; assay type: cell-based, human
# Text: as §3
# Bad gene [4] = test: rtPCR gene expression in Sk-Mel-28 cells; assay type: cell-based, human
# chorioallantoic membrane = test: HET-CAM irritation assay; details: for Irritation Score: 5 min
# Text: HET-CAM assay was used in order to assess the toxicity of compounds 6 and 7 (Figure 16); the procedure is a low-cost, unique model in biomedical research that allows the testing of the irritation potency of chemical compounds while simultaneously avoiding in vivo experiments. […] The Luepke scale was used to establish the irritation score: 0–0.9 indicates non-irritant, 1–4.9 indicates weakly irritant, 5–8.9 indicates moderately irritant, and 9–21 means strongly irritant.
# Compounds 6 and 7 were also evaluated in terms of biocompatibility on mucosal tissues by using the in vivo Hen’s Egg Chorioallantoic Membrane Test (HET-CAM assay). The assay assesses a potential irritant effect on the vascular plexus of the chorioallantoic membrane. The HET-CAM method was carried out following ICCVAM recommendations published in November 2016 in Appendix G and adapted to our laboratory conditions. Thus, 300 µL of control or test solution, respectively, was applied on CAM and the alterations induced at the CAM level were monitored by means of stereomicroscopy (Discovery 8 Stereomicroscope, Zeiss), registering significant images (Axio CAM 105 color, Zeiss), before the application and after 5 min contact with the samples. All images were processed using Zeiss ZEN software, Gimp 2.8 and ImageJ software. Negative control was represented by distilled water and solvent control DMSO 0.5%, while the positive control by the sodium lauryl sulphate (SLS) 0.5% in distillate water. The test substances were tested in concentrations of 1 µM. The observation time of the produced reactions was 5 min (300 s) and the time, at which the occurrence of a particular reaction took place was recorded in seconds. Finally, the following reactions were monitored: hemorrhage—H (blood vessel bleeding), vascular lysis —L (disintegration of blood vessels), and coagulation —C (intra or extra- vascular protein denaturizing). A variety of analysis methods may be used to assess irritancy potential of test substances. One analysis method that has been used extensively used is an irritation score (IS) calculated according to the following formula: IS=5×301−SecH/300+[…]/300+9×301−SecC/300 where H = hemorrhage; L = vessel lysis; C = coagulation; Hemorrhage time (Sec H) = onset of hemorrhage reactions on CAM (in sec); Lysis time (Sec L) = onset of vessel lysis on CAM (in sec); Coagulation time (Sec C) = onset of coagulation formation on CAM (in sec). The formula comprises a factor indicating the impact of the observed effect on vascular damage, e.g., coagulation has the highest impact expressed by the multiplication factor 9. The IS values range on a scale between 0 and 21.
# Bcl-XL gene [5] = test: rtPCR gene expression in RPMI cells; assay type: cell-based, human
# Text: as §3
# Bak gene [6] = test: rtPCR gene expression in RPMI cells; assay type: cell-based, human
# Text: as §3
SMILES,"Nuclear changes, DAPI staining (RPMI melanoma cells; 0.1 μM)","Nuclear changes, DAPI staining (RPMI melanoma cells; 5 μM)","Nuclear changes, DAPI staining (A375 melanoma cells; A375, 0.1 μM)","Nuclear changes, DAPI staining (A375 melanoma cells; A375, 1 μM)","Nuclear changes, DAPI staining (A375 melanoma cells; A375, 5 μM)","Nuclear changes, DAPI staining (SK-MEL-28 melanoma cells; SK-Mel-28, 0.1 μM)","Nuclear changes, DAPI staining (SK-MEL-28 melanoma cells; SK-Mel-28, 5 μM)","Bcl-2 gene expression, Mean (Bcl-2 gene)","Bcl-XL gene expression, Mean (Bcl-XL gene [1])","Bad gene expression, Mean (Bad gene [2])","Bak gene expression, Mean (Bak gene [3])","Bad gene expression, Mean (Bad gene [4])","Bcl-XL gene expression, Mean (Bcl-XL gene [5])","Bak gene expression, Mean (Bak gene [6])",other results
"C[C@H]1[C@@H]2[C@H]3CC[C@@H]4[C@@]5(C)C/C(=C\c6cccnc6)C(=O)C(C)(C)[C@@H]5CC[C@@]4(C)[C@]3(C)CC[C@]23CO[C@@]1(C)[C@@H](C(=O)/C=C/c1cccnc1)C3 [Compound 6, 3-Oxo-2-(3-pyridinylidene)-21-[3-(2E-pyridinyl)-prop-2-en-1-one]-20β,28-epoxy-18α,19βH-ursane]",massive nucleus condensation and fragmentation,occurrence of nuclear residues,nuclear fragmentation,nuclear fragmentation,chromatin becomes condensed,massive nucleus condensation and fragmentation,occurrence of nuclear residues,2.570,0.286 *,downregulated,downregulated,15.716 **,0.100 **,0.066 ***,"Bad gene expression, Mean (Bad gene [2]; listed as compound 6): 0.150 *; Bak gene expression, Mean (Bak gene [3]; listed as compound 6): 0.546 ***; Irritation Score (chorioallantoic membrane; HET-CAM, 300 µL, 1 µM test compounds, scale 0–21): 0; Type of Effect (chorioallantoic membrane; HET-CAM, Luepke scale): Non irritant"
"COC(=O)[C@]12CC[C@@H](C(=O)/C=C/c3cccnc3)[C@@H]1[C@H]1CC[C@@H]3[C@@]4(C)C/C(=C\c5cccnc5)C(=O)C(C)(C)[C@@H]4CC[C@@]3(C)[C@]1(C)CC2 [Compound 7, methyl 2,30-bis-(3-pyridinylidene)-3,20-dioxo-lup-28-oate]",slight nucleus fragmentation,nuclear fragmentation and chromatin condensation,nucleus fragmentation,condensation of chromatin,condensation of chromatin,slight nucleus fragmentation,nuclear fragmentation and chromatin condensation,upregulation,upregulation,upregulation,upregulation,65.946 ***,1.360 *,0.990 **,"Nuclear changes, DAPI staining (RPMI melanoma cells; 1 μM): nuclear fragmentation and chromatin condensation; Nuclear changes, DAPI staining (SK-MEL-28 melanoma cells; SK-Mel-28, 1 μM): nuclear fragmentation and chromatin condensation; Bcl-2 gene expression, Mean (Bcl-2 gene; listed as compound 7): 81.120 ***; Bcl-XL gene expression, Mean (Bcl-XL gene [1]; listed as compound 7): 28.893 **; Bad gene expression, Mean (Bad gene [2]; listed as compound 7): 155.433 *; Bak gene expression, Mean (Bak gene [3]; listed as compound 7): 17.743 ***; Irritation Score (chorioallantoic membrane; chicken, in vivo, 1 µM): 0; Type of Effect (chorioallantoic membrane; in vivo): Non irritant"
